Patent US20230074545A1, “TREATMENT OF CANCER WITH CDK12/13 INHIBITORS” (Kinnate Biopharma Inc., priority 2019, published 2023)

Assays:
Experiment in all cases: Radiometric kinase panel
Assay type in all cases: biochemical
RPS6KA5 = molecular target: T1, RPS6KA5 (Homo sapiens, UniProt O75582)
T1 construct: either as full-length or enzymatically active fragments; purchased ProQinase GmbH (Reaction Biology); host or cells: Sf9 insect cells or E. coli (not specified per kinase)
Summary of the method: (§1)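 Activity was measured radiometrically from [gamma-33P]-ATP incorporation into substrate. The kinases were recombinant human GST- or His-tagged proteins, full-length or active fragments, expressed in Sf9 or E. coli. Compound in 10% DMSO was added before the enzyme/substrate mix, which started the reaction.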

EPHA4 = molecular target: T2, EPHA4 (Homo sapiens, UniProt P54764)
T2 construct: either as full-length or enzymatically active fragments; purchased ProQinase GmbH (Reaction Biology)
T2 sequence (P54764 20-986): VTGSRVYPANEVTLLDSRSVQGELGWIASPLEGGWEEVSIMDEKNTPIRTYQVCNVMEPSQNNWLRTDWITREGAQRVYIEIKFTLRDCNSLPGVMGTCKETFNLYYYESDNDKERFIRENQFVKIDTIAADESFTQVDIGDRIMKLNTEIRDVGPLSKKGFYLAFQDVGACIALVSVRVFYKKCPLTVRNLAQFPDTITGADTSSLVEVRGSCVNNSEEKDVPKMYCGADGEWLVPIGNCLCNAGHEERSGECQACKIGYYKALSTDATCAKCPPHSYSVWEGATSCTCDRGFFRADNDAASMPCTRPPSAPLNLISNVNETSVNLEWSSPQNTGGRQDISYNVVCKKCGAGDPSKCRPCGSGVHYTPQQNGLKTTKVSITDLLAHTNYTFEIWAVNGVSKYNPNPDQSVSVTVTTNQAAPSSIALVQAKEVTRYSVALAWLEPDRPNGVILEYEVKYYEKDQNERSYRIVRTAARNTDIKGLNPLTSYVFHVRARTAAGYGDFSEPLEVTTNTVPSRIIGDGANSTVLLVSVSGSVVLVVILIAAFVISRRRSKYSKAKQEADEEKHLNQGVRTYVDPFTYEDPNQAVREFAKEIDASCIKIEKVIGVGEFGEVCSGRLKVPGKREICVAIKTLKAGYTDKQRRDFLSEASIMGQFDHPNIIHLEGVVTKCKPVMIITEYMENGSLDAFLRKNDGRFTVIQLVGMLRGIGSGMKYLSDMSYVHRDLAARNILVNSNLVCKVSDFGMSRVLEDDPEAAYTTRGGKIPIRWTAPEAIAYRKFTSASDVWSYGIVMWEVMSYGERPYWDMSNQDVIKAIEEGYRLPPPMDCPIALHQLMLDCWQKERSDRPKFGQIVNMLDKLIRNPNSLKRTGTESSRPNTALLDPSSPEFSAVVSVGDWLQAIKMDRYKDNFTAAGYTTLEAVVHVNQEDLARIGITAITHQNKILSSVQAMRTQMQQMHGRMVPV
Summary of the method: as §1

GSK3beta = molecular target: T3, GSK3beta (Homo sapiens, UniProt P49841)
T3 construct: either as full-length or enzymatically active fragments; purchased ProQinase GmbH (Reaction Biology)
Summary of the method: as §1

WNK1 = molecular target: T4, WNK1 (Homo sapiens, UniProt Q9H4A3)
T4 construct: either as full-length or enzymatically active fragments; purchased ProQinase GmbH (Reaction Biology)
Summary of the method: as §1

JAK3 = molecular target: T5, JAK3 (Homo sapiens, UniProt P52333)
T5 construct: purchased ProQinase GmbH (Reaction Biology)
Summary of the method: as §1

FES = molecular target: T6, FES (Homo sapiens, UniProt P07332)
T6 construct: purchased ProQinase GmbH (Reaction Biology)
Summary of the method: as §1

CDK7/CycH/MAT1 = molecular target: T7, CDK7/CycH/MAT1 (Homo sapiens, UniProt P50613)
T7 construct: either as full-length or enzymatically active fragments; purchased ProQinase GmbH (Reaction Biology)
Summary of the method: as §1

TGFBR1 = molecular target: T8, TGFBR1 (Homo sapiens, UniProt P36897)
T8 construct: either as full-length or enzymatically active fragments; purchased ProQinase GmbH (Reaction Biology)
T8 sequence (P36897 34-503): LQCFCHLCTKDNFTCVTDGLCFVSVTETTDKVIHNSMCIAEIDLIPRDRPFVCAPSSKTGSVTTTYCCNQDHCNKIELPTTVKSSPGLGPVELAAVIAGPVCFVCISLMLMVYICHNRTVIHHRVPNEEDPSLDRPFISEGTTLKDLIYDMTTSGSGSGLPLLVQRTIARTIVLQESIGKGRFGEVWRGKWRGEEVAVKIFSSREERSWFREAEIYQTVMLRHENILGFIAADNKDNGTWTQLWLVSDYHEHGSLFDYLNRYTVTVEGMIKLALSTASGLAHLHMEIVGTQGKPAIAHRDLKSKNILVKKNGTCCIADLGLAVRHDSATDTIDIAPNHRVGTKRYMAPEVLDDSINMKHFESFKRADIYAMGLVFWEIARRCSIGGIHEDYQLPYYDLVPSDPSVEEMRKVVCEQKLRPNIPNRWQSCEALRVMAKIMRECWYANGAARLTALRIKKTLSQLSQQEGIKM
Summary of the method: as §1

STK23 = molecular target: T9, STK23 (Homo sapiens, UniProt Q9UPE1)
T9 construct: either as full-length or enzymatically active fragments; purchased ProQinase GmbH (Reaction Biology)
Summary of the method: as §1

EPHA7 = molecular target: T10, EPHA7 (Homo sapiens, UniProt Q15375)
T10 construct: either as full-length or enzymatically active fragments; purchased ProQinase GmbH (Reaction Biology)
Summary of the method: as §1

EPHA5 = molecular target: T11, EPHA5 (Homo sapiens, UniProt P54756)
T11 construct: either as full-length or enzymatically active fragments; purchased ProQinase GmbH (Reaction Biology)
T11 sequence (P54756 25-1037): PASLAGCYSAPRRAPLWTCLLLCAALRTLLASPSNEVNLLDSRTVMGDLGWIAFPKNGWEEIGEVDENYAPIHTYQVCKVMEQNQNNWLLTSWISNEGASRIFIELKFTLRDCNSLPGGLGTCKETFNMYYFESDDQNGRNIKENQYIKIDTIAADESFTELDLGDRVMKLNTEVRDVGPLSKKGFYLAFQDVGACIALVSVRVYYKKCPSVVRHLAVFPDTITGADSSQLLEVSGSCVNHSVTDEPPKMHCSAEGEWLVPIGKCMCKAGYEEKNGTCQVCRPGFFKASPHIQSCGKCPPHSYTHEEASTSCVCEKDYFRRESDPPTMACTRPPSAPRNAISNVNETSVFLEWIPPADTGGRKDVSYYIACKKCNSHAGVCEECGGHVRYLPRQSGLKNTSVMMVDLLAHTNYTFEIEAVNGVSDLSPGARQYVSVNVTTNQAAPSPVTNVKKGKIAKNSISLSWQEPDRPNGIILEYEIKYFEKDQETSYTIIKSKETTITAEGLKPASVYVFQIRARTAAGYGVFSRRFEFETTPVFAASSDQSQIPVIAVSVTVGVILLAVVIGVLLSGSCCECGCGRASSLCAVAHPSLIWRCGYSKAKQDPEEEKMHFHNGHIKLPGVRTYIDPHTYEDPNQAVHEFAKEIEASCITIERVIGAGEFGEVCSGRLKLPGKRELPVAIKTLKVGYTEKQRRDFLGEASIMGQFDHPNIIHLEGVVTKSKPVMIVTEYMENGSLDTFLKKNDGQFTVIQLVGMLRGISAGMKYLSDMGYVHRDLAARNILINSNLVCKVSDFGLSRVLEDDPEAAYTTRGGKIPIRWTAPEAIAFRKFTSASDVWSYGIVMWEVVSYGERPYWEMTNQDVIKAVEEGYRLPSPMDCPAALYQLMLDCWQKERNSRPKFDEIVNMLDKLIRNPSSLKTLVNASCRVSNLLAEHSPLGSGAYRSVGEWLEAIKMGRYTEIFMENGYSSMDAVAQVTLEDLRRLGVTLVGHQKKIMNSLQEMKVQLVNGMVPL
Summary of the method: as §1

MAPKAPK5 = molecular target: T12, MAPKAPK5 (Homo sapiens, UniProt Q8IW41)
T12 construct: purchased ProQinase GmbH (Reaction Biology)
Summary of the method: as §1

DNAPK = molecular target: T13, DNAPK (Homo sapiens, UniProt P78527)
T13 construct: purchased ProQinase GmbH (Reaction Biology); host or cells: Sf9 insect cells or E. coli (not specified per kinase)
Summary of the method: as §1

MINK1 = molecular target: T14, MINK1 (Homo sapiens, UniProt Q8N4C8)
T14 construct: either as full-length or enzymatically active fragments; purchased ProQinase GmbH (Reaction Biology)
Summary of the method: as §1

DDR2 = molecular target: T15, DDR2 (Homo sapiens, UniProt Q16832)
T15 construct: either as full-length or enzymatically active fragments; purchased ProQinase GmbH (Reaction Biology)
T15 sequence (Q16832 22-855): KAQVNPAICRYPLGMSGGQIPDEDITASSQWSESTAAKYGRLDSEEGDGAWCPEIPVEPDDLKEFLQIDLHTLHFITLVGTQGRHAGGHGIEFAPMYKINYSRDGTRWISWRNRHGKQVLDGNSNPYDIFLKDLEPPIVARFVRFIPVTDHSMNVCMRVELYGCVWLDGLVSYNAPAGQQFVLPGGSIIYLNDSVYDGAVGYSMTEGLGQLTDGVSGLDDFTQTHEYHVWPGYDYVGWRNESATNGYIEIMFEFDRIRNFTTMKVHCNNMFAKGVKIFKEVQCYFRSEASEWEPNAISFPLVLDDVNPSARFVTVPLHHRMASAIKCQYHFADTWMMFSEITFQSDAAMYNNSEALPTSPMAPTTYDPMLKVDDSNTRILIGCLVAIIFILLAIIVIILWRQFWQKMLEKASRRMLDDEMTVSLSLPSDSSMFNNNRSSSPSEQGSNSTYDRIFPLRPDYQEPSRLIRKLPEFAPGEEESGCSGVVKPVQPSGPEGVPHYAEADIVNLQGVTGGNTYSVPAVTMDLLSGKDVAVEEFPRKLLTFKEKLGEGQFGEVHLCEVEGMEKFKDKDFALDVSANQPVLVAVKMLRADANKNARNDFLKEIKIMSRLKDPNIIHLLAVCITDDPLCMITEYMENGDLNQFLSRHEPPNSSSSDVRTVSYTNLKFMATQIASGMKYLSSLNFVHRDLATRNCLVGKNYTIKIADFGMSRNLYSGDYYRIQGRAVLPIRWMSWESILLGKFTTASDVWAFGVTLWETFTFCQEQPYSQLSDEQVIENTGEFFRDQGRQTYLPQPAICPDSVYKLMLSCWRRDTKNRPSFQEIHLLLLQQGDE
Summary of the method: as §1

EGFR = molecular target: T16, EGFR (Homo sapiens, UniProt P00533)
T16 construct: either as full-length or enzymatically active fragments; purchased ProQinase GmbH (Reaction Biology)
Summary of the method: as §1

TSK2 = molecular target: T17, TSK2 (Homo sapiens, UniProt Q96PF2)
T17 construct: purchased ProQinase GmbH (Reaction Biology)
Summary of the method: as §1

TLK2 = molecular target: T18, TLK2 (Homo sapiens, UniProt Q86UE8)
T18 construct: either as full-length or enzymatically active fragments; purchased ProQinase GmbH (Reaction Biology)
Summary of the method: as §1

RPS6KA2 = molecular target: T19, RPS6KA2 (Homo sapiens, UniProt Q15349)
T19 construct: either as full-length or enzymatically active fragments; purchased ProQinase GmbH (Reaction Biology); host or cells: Sf9 insect cells or E. coli
T19 sequence (Q15349 whole entry, the tested form may be a part): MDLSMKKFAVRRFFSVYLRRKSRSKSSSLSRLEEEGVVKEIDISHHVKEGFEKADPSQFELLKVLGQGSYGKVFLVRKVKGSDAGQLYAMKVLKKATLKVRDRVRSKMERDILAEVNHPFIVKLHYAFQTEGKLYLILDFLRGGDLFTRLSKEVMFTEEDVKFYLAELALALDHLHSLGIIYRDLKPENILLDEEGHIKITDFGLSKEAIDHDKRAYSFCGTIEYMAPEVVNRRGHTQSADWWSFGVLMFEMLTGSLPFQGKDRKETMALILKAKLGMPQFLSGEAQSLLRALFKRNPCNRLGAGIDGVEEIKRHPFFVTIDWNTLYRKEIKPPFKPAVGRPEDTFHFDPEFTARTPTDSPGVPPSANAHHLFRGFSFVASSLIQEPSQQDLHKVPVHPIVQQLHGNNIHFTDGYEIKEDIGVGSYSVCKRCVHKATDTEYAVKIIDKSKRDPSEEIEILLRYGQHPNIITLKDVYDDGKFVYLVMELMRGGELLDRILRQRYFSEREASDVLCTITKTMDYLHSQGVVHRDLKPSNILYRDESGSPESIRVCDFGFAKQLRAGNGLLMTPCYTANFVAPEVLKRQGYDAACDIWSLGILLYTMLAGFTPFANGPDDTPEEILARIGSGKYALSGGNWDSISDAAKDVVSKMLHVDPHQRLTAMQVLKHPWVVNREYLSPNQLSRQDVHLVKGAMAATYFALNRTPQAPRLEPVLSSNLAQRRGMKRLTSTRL
Summary of the method: as §1

PRKG2 = molecular target: T20, PRKG2 (Homo sapiens, UniProt Q13237)
T20 construct: either as full-length or enzymatically active fragments; purchased ProQinase GmbH (Reaction Biology)
Summary of the method: as §1

EIF2AK2 = molecular target: T21, EIF2AK2 (Homo sapiens, UniProt P19525)
T21 construct: either as full-length or enzymatically active fragments; purchased ProQinase GmbH (Reaction Biology); host or cells: Sf9 insect cells or E. coli
Summary of the method: as §1

PRKG1 = molecular target: T22, PRKG1 (Homo sapiens, UniProt Q13976)
T22 construct: either as full-length or enzymatically active fragments; purchased ProQinase GmbH (Reaction Biology)
Summary of the method: as §1

JAK2 = molecular target: T23, JAK2 (Homo sapiens, UniProt O60674)
T23 construct: either as full-length or enzymatically active fragments; purchased ProQinase GmbH (Reaction Biology)
Summary of the method: as §1

MAP3K11 = molecular target: T24, MAP3K11 (Homo sapiens, UniProt Q16584)
T24 construct: either as full-length or enzymatically active fragments; purchased ProQinase GmbH (Reaction Biology)
T24 sequence (Q16584 whole entry, the tested form may be a part): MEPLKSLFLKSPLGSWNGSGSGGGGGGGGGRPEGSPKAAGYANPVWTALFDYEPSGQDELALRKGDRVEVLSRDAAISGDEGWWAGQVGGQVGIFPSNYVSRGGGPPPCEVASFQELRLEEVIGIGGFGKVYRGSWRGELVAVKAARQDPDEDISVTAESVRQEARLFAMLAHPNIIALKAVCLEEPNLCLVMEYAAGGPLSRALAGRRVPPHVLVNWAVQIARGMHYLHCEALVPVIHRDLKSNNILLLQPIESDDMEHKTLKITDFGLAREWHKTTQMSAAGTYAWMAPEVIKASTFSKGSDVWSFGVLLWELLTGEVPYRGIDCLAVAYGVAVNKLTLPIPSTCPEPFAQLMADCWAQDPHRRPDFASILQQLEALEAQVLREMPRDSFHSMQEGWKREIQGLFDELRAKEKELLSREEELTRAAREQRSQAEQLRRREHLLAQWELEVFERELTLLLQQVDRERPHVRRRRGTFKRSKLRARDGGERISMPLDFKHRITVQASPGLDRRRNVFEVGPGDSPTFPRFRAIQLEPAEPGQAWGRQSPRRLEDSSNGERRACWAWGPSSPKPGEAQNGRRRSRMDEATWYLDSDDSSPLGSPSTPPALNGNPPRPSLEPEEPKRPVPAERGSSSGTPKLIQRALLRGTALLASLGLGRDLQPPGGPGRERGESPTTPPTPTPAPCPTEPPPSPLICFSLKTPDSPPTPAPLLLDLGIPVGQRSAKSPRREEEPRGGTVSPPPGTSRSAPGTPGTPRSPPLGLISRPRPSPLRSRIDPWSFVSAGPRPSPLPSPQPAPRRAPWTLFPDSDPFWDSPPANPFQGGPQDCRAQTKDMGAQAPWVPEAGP
Summary of the method: as §1

ZAP70 = molecular target: T25, ZAP70 (Homo sapiens, UniProt P43403)
T25 construct: either as full-length or enzymatically active fragments; purchased ProQinase GmbH (Reaction Biology)
Summary of the method: as §1

INSRR = molecular target: T26, INSRR (Homo sapiens, UniProt P14616)
T26 construct: either as full-length or enzymatically active fragments; purchased ProQinase GmbH (Reaction Biology)
Summary of the method: as §1

CDC42BPB = molecular target: T27, CDC42BPB (Homo sapiens, UniProt Q9Y5S2)
T27 construct: either as full-length or enzymatically active fragments; purchased ProQinase GmbH (Reaction Biology)
Summary of the method: as §1

RET = molecular target: T28, RET (Homo sapiens, UniProt P07949)
T28 construct: either as full-length or enzymatically active fragments; purchased ProQinase GmbH (Reaction Biology)
Summary of the method: as §1

CDK9/CycK = molecular target: T29, CDK9/CycK (Homo sapiens, UniProt P50750)
T29 construct: either as full-length or enzymatically active fragments; purchased ProQinase GmbH (Reaction Biology)
Summary of the method: as §1

RIPK4 = molecular target: T30, RIPK4 (Homo sapiens, UniProt P57078)
T30 construct: either as full-length or enzymatically active fragments; purchased ProQinase GmbH (Reaction Biology)
Summary of the method: as §1

Question: Which results are given for C=CC(=O)Nc1ccc(C(=O)N2CC[C@@H](Nc3ncc(C#N)cn3)C2)cc1 [Compound 4, (R)-N-(4-(3-((5-cyanopyrimidin-2-yl)amino)pyrrolidine-1-carbonyl)phenyl)acrylamide]?
Answer: inhibition at 1 µM (RPS6KA5): 10%; inhibition at 1 µM (EPHA4): 2%; inhibition at 1 µM (GSK3beta): 8%; inhibition at 1 µM (WNK1): 17%; inhibition at 1 µM (JAK3): -1%; inhibition at 1 µM (FES): -2%; inhibition at 1 µM (CDK7/CycH/MAT1): 33%; inhibition at 1 µM (TGFBR1): 7%; inhibition at 1 µM (STK23): 7%; inhibition at 1 µM (EPHA7): -3%; inhibition at 1 µM (EPHA5): -8%; inhibition at 1 µM (MAPKAPK5): -1%; inhibition at 1 µM (DNAPK): 2%; inhibition at 1 µM (MINK1): 16%; inhibition at 1 µM (DDR2): -9%; inhibition at 1 µM (EGFR): 7%; inhibition at 1 µM (TSK2): -1%; inhibition at 1 µM (TLK2): -10%; inhibition at 1 µM (RPS6KA2): 12%; inhibition at 1 µM (PRKG2): -6%; inhibition at 1 µM (EIF2AK2): 15%; inhibition at 1 µM (PRKG1): -12%; inhibition at 1 µM (JAK2): -6%; inhibition at 1 µM (MAP3K11): -7%; inhibition at 1 µM (ZAP70): -6%; inhibition at 1 µM (INSRR): 5%; inhibition at 1 µM (CDC42BPB): 7%; inhibition at 1 µM (RET): 5%; inhibition at 1 µM (CDK9/CycK): 21%; inhibition at 1 µM (RIPK4): -3%
